Measured values from ChEMBL document CHEMBL3091341, “Chlorophenylpiperazine analogues as high affinity dopamine transporter ligands” (Bioorg Med Chem Lett, 2013).
pKi: −log10 of the molar value.

Assays:
[1] = Displacement of [3H]TCP from N-methyl D-aspartate receptor phencyclidine binding site in rat brain after 120 mins by liquid scintillation counting analysis; type: tissue-based
[2] = Binding affinity to rat opioid receptor after 120 mins by radioligand displacement assay
[3] = Displacement of [3H]nisoxetine from norepinephrine transporter in rat cerebral cortex after 120 mins by liquid scintillation counting analysis; type: tissue-based
[4] = biological target: Sodium-dependent serotonin transporter (Rattus norvegicus, UniProt P31652); assay: Displacement of [3H]paroxetine from serotonin transporter in rat brainstem after 120 mins by liquid scintillation counting analysis; type: tissue-based
D(2) dopamine receptor = D(2) dopamine receptor (Rattus norvegicus, UniProt P61169); assay: Displacement of [3H](-)-sulpiride from dopamine D2 receptor in rat brain after 120 mins by liquid scintillation counting analysis; type: tissue-based
[5] = biological target: 5-hydroxytryptamine receptor 2A (Rattus norvegicus, UniProt P14842); assay: Displacement of [3H]ketanserin from 5-HT2 receptor in rat brain after 120 mins by liquid scintillation counting analysis; type: tissue-based
Rattus norvegicus [6] = species: Rattus norvegicus; assay: Selectivity ratio of Ki for rat brain sigma1 receptor to Ki for rat striatum dopamine transporter; type: tissue-based
[7] = biological target: Sodium-dependent dopamine transporter (Rattus norvegicus, UniProt P23977); assay: Displacement of [3H]WIN 35428 from dopamine transporter in rat striatum after 120 mins by liquid scintillation counting analysis
Rattus norvegicus [8] = species: Rattus norvegicus; assay: Selectivity ratio of Ki for rat brain sigma1 receptor to Ki for rat brain sigma2 receptor
[9] = Displacement of [3H]di-o-tolylguanidine from sigma2 receptor in rat brain after 120 mins by liquid scintillation counting analysis; type: tissue-based
[10] = biological target: Sigma non-opioid intracellular receptor 1 (Rattus norvegicus, UniProt Q9R0C9); assay: Displacement of [3H](+)-pentazocine from sigma1 receptor in rat brain after 120 mins by liquid scintillation counting analysis; type: tissue-based
Sequence of Sigma non-opioid intracellular receptor 1 (Q9R0C9 whole entry): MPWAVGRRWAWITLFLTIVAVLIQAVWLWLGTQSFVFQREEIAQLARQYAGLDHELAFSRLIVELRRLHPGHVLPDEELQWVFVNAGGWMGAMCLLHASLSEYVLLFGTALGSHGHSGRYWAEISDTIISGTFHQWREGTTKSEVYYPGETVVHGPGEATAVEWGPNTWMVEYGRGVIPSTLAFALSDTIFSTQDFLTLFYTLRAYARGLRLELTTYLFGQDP

Sequence of Sodium-dependent dopamine transporter (P23977 whole entry): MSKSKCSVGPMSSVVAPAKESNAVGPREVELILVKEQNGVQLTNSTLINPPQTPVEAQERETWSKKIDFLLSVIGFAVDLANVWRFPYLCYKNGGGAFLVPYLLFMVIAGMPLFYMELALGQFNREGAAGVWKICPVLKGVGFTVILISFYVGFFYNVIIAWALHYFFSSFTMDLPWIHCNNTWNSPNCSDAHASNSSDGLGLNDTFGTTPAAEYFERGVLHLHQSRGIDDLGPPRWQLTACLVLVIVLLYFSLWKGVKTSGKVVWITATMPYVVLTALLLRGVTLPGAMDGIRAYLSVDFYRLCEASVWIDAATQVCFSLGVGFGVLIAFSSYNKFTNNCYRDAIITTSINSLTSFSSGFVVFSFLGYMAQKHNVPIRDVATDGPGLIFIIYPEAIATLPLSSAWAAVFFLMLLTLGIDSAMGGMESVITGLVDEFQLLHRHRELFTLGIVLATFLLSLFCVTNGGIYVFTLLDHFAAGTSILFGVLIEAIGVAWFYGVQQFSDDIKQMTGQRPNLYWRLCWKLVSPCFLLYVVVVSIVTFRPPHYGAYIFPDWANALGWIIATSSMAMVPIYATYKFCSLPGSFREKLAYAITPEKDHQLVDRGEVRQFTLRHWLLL
Sequence of D(2) dopamine receptor (P61169 whole entry): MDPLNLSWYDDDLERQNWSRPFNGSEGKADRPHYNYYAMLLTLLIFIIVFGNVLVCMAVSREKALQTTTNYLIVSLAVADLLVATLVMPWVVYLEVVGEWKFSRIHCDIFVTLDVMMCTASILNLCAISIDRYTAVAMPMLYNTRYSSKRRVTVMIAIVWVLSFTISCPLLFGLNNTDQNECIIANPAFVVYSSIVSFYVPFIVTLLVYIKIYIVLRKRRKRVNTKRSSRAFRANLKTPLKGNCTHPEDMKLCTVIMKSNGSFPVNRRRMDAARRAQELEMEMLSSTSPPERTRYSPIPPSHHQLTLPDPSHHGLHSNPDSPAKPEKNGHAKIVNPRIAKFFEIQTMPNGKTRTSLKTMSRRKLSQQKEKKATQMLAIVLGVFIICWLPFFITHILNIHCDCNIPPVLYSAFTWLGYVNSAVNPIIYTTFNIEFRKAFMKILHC
Sequence of Sodium-dependent serotonin transporter (P31652 whole entry): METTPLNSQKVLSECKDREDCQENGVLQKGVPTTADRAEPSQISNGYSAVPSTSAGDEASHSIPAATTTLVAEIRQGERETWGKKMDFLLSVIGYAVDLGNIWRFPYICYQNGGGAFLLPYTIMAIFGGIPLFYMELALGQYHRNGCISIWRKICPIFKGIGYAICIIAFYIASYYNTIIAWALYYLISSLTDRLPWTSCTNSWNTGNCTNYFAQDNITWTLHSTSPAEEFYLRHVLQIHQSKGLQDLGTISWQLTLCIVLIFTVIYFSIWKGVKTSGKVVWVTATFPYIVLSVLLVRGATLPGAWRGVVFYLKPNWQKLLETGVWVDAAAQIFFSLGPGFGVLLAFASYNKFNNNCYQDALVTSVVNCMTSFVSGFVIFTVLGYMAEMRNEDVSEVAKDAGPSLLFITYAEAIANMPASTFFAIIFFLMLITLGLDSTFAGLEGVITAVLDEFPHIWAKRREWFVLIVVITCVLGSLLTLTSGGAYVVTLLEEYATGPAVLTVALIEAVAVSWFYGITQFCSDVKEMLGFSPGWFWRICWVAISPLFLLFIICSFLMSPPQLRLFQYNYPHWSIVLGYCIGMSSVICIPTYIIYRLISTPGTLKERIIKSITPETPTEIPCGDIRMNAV
Sequence of 5-hydroxytryptamine receptor 2A (P14842 whole entry): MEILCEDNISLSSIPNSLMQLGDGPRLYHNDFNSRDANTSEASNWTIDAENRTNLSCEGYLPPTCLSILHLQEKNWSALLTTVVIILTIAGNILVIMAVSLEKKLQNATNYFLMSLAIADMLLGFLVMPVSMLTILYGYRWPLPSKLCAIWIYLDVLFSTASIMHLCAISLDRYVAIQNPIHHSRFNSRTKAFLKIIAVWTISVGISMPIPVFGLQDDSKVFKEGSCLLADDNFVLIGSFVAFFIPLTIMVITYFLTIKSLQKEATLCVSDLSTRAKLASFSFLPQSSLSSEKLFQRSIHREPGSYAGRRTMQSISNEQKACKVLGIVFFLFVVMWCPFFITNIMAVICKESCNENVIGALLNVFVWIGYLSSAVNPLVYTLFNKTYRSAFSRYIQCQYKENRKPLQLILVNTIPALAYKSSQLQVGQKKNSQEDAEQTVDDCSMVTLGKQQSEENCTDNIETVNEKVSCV

| Compound | pKi [1] | pKi [2] | pKi [3] | pKi [4] | pKi (D(2) dopamine receptor) | pKi [5] | Ratio Ki (Rattus norvegicus [6]) | pKi [7] | Ratio Ki (Rattus norvegicus [8]) | pKi [9] | pKi [10] |
| --- | --- | --- | --- | --- | --- | --- | --- | --- | --- | --- | --- |
| Clc1ccc(N2CCN(CCc3ccccc3)CC2)cc1 | < 5.00 | < 5.00 | < 5.00 | 6.43 | 6.08 | 6.29 | 0.31 | 8.22 | 0.056 | 7.48 | 8.73 |
| c1ccc(CCCN2CCN(c3ccccn3)CC2)cc1 | < 5.00 | < 5.00 | < 5.00 | < 5.00 | 6.03 | 5.91 | 0.009 | 5.04 | 16.7 | 8.31 |  |
| Clc1ccccc1N1CCN(CCc2ccccc2)CC1 | < 5.00 | 5.32 | 6.10 | < 5.00 | 7.17 | 6.32 | 1.15 | 9.89 | 0.003 | 7.25 | 9.82 |
| Clc1cccc(N2CCN(CCc3ccccc3)CC2)c1 | < 5.00 | < 5.00 | 5.96 | 6.10 | 6.49 | 7.28 | 162 | 10.40 | 0.079 | 7.08 | 8.19 |

Other lines, results leading:

| pKi [1] | pKi [2] | pKi [3] | pKi [4] | pKi (D(2) dopamine receptor) | pKi [5] | Ratio Ki (Rattus norvegicus [6]) | pKi [7] | Ratio Ki (Rattus norvegicus [8]) | pKi [9] | pKi [10] | Compound |
| --- | --- | --- | --- | --- | --- | --- | --- | --- | --- | --- | --- |
| < 5.00 | < 5.00 | < 5.00 | 5.96 | 6.18 | 6.41 | 4.5e-05 | 5.58 | 0.011 | 7.96 | 9.92 | Clc1ccc(N2CCN(CCCc3ccccc3)CC2)cc1 |
| < 5.00 | < 5.00 | < 5.00 | 6.31 | 6.89 | 6.30 |  | < 5.00 | 0.39 | 7.90 | 8.31 | Clc1cccc(N2CCN(CCCc3ccccc3)CC2)c1 |
| < 5.00 | 5.34 | < 5.00 | 6.39 | 7.11 | 6.02 | 0.0012 | 6.32 | 0.072 | 8.11 | 9.25 | Clc1ccccc1N1CCN(CCCc2ccccc2)CC1 |
